Source: publication PMC12703733, “Probing Guanidino Pendant or Bridged Groups in Cyclic Antimicrobial Peptides Derived from Temporin L: A Strategy to Improve Efficacy against Gram-Negative Bacteria” (Journal of Medicinal Chemistry, 2025)
Converted amounts (≈) assume the structure as drawn. Like-named read-outs stand apart in the source and are kept apart here.

How the values were obtained:
[1] = format: cell-based, human; conditions: human
Experimental: (§1) For the evaluation of peptides’ cytotoxicity, the human immortalized keratinocytes (HaCaT cells), purchased from AddexBio (San Diego, CA, USA), and BEAS-2B were used. HaCaT cells were cultured in Dulbecco’s modified Eagle’s medium supplemented with 4 mM glutamine (DMEM), 10% heat-inactivated fetal bovine serum (FBS), and 0.1 mg/mL of penicillin and streptomycin, at 37 °C and 5% CO2. BEAS-2B cells were cultured in RPMI, supplemented with 2 mM glutamine (DMEM), 10% heat-inactivated fetal bovine serum (FBS), 1 mM sodium pyruvate, and 0.1 mg/mL of penicillin and streptomycin, at 37 °C and 5% CO2. Cytotoxicity was tested in vitro using a colorimetric assay that relies on the intracellular reduction of the yellow 3-(4,5-dimethylthiazol-2-yl)-2,5-diphenyltetrazolium bromide salt (MTT) by mitochondrial dehydrogenases of metabolically active cells in formazan crystals (purple). About 4 × 10^4 HaCaT and BEAS-2B cells, suspended in DMEM supplemented with 2% FBS, were plated in triplicate wells of a 96-well microtiter plate. The plate was incubated overnight at 37 °C and 5% CO2. Then, the cells were treated with different concentrations of the peptide (from 100 to 3.12 μM) in a fresh serum-free medium for 2 h and for a longer time (24 h). Following peptide treatment, the medium was removed, and MTT (0.5 mg/mL) solution in Hank’s buffer (136 mM NaCl, 4.2 mM Na2HPO4, 4.4 mM KH2PO4, 5.4 mM KCl, 4.1 mM NaHCO3, pH 7.2, supplemented with 20 mM D-glucose) was added to each well of the plate, that was then incubated for 4 h at 37 °C and 5% CO2. The purple formazan crystals were dissolved using acidified 2-propanol and a microplate reader (Infinite M200; Tecan, Salzburg, Austria) was used to measure the absorbance of each well at 570 nm. The percentage of cell viability was calculated compared to the control, which consisted of cells without any peptide treatment (corresponding to 100% viability) and all data represent the mean of three independent experiments ± SEM.

[2] = system: human keratinocytes (HaCaT cells); format: cell-based
Experimental: as §1

circular dichroism = conditions: water; pH ns; 25 °C; 150 uM
E. faecalis ATCC 29212 = assay: microbe, parasite or virus in culture; format: cell-based; conditions: ATCC 29212
Experimental: (§2) Bacterial strains used in this study were the Gram-positive S. aureus ATCC 25923, S. epidermidis ATCC 12228, B. megaterium BM11, S. [NT] 27591, E. faecalis ATCC 29212 and the Gram-negative E. coli ATCC 25922, P. aeruginosa ATCC 27853, A. baumannii ATCC 19606, E. coli D21 and P. aeruginosa PAO1. […] Bacterial cells in the mid log phase were diluted in Muller Hinton (MH) at a concentration of 2 × 10^6 cell/mL. […] Ciprofloxacin was used as antibiotic control. The plate was then incubated at 37 °C. MICs were obtained from three identical readings of four independent experiments.

E. coli D21 = assay: microbe, parasite or virus in culture; format: cell-based; conditions: D21
Experimental: as §2

S. agalactiae ATCC 27591 = assay: microbe, parasite or virus in culture; format: cell-based; conditions: ATCC 27591
Experimental: as §2

E. coli ATCC 25922 = assay: microbe, parasite or virus in culture; format: cell-based; conditions: ATCC 25922
Experimental: as §2

B. megaterium BM11 = assay: microbe, parasite or virus in culture; format: cell-based; conditions: BM11
Experimental: as §2

P. aeruginosa ATCC 27853 = assay: microbe, parasite or virus in culture; format: cell-based; conditions: ATCC 27853
Experimental: as §2

S. aureus ATCC 25923 = assay: microbe, parasite or virus in culture; format: cell-based; conditions: ATCC 25923
Experimental: as §2

P. aeruginosa PAO1 = assay: microbe, parasite or virus in culture; format: cell-based; conditions: PAO1
Experimental: as §2

[3] = system: S. epidermidis ATCC 12228; assay: microbe, parasite or virus in culture; format: cell-based; conditions: ATCC 12228
Experimental: as §2

A. baumannii ATCC 19606 = assay: microbe, parasite or virus in culture; format: cell-based; conditions: ATCC 19606
Experimental: as §2

[4] = format: cell-based
Experimental: as §1

in vitro = in vitro ADME
Experimental: Peptide stability was evaluated by modifying previously described procedures. , The assays were performed in human serum and in the presence of proteolytic enzymes such as trypsin and chymotrypsin. For human serum stability, 2 mM peptide stock solutions were prepared in water and mixed with human serum (from male AB plasma, USA origin, sterile-filtered, Merck/Sigma-Aldrich, USA) to obtain a final concentration of 200 μM [human plasma/stock solution (9:1, v/v)]. The mixtures were incubated at 37 ± 1 °C, and 50 μL aliquots were taken at predetermined time intervals (0, 1, 2, 4, 8, and 24 h). Protease activity was quenched by adding 100 μL of acetonitrile (MeCN). The resulting cloudy suspensions were cooled to 4 °C for 30 min and centrifugated at 12,000 rpm for 10 min to remove the serum proteins. Then, the supernatants were analyzed by analytical HPLC (Shimadzu Nexera Liquid Chromatograph LC-30AD) which was equipped with a Phenomenex Kinetex reversed-phase column (C18, 5 μm, 100 Å, 150 mm × 4.6 mm) with a flow rate of 1 mL/min using a gradient of MeCN (0.1% TFA) in water (0.1% TFA), from 10 to 70% over 15 min, and UV detection at 220 nm. For enzyme stability, each peptide peptide (200 μM) was incubated with trypsin (0.5 μM) in PBS 1× (pH 7.2) or with chymotrypsin (0.005 μM) in Tris–HCl (100 mM, pH 7.8). Samples (50 μL) were collected at 0, 1, 2, 4, and 24 h, quenched with 0.5% TFA in water, and analyzed by HPLC under chromatographic conditions as described above. All experiments were conducted in triplicate. The percentage of intact peptides at each time point was determined by integrating the corresponding HPLC peak areas.

[5] = isolated enzyme trypsin, pH 7.2

MIC (E. faecalis ATCC 29212) [µM]	MIC (E. coli D21) [µM]	MIC (S. agalactiae ATCC 27591) [µM]	MIC (E. coli ATCC 25922) [µM]	MIC (B. megaterium BM11) [µM]	MIC (P. aeruginosa ATCC 27853) [µM]	MIC (S. aureus ATCC 25923) [µM]	Compound	CC50 at 24 h [1] [µM]	viability at 2 h, 6.25 µM ([1]; Cell viability (%)) [%]	viability at 2 h, 12.5 µM ([1]; Cell viability (%)) [%]	viability at 2 h, 25 µM ([1]; Cell viability (%)) [%]	viability at 2 h, 50 µM ([1]; Cell viability (%)) [%]	viability at 2 h, 100 µM ([1]; Cell viability (%)) [%]	viability at 24 h, 3.12 µM ([1]; Cell viability (%)) [%]	viability at 24 h, 6.25 µM ([1]; Cell viability (%)) [%]	viability at 24 h, 12.5 µM ([1]; Cell viability (%)) [%]	viability at 24 h, 25 µM ([1]; Cell viability (%)) [%]	viability at 24 h, 50 µM ([1]; Cell viability (%)) [%]	viability at 24 h, 100 µM ([1]; Cell viability (%)) [%]	helicity (circular dichroism) [%]	further results
12.5 (≈ 21.8 µg/mL)	12.5 (≈ 21.8 µg/mL)	3.12 (≈ 5.45 µg/mL)	6.25 (≈ 10.9 µg/mL)	1.56 (≈ 2.72 µg/mL)	50 (≈ 87.3 µg/mL)	3.12 (≈ 5.45 µg/mL)	CC[C@H](C)[C@H](NC(=O)[C@H](CCCNC(=N)N)NC(=O)[C@@H]1CCCCNC(=N)NCCCC[C@H](NC(=O)[C@H](Cc2ccccc2)NC(=O)[C@H](Cc2c[nH]c3ccccc23)NC(=O)[C@@H]2CCCN2C(=O)[C@@H](NC(=O)[C@@H](N)Cc2ccccc2)C(C)C)C(=O)N[C@@H](CCCCN)C(=O)N[C@@H](Cc2ccccc2)C(=O)N[C@H](CC(C)C)C(=O)N1)C(=O)N[C@@H](CC(C)C)C(N)=O [Peptide 11, FVPWF{KKFlK}RIL]	21.3	98	86	57	35	10	98 ± 4	97 ± 3	87 ± 3	35 ± 3	5 ± 3	2 ± 1	76	cytotoxicity (in words) [2]: Low cytotoxicity (up to 25 μM); MIC (P. aeruginosa PAO1): 50 µM (≈ 87.3 µg/mL); MIC [3]: 1.56 µM (≈ 2.72 µg/mL); MIC (A. baumannii ATCC 19606): 1.56 µM (≈ 2.72 µg/mL)
6.25 (≈ 10.9 µg/mL)	3.12 (≈ 5.45 µg/mL)	1.56 (≈ 2.72 µg/mL)	6.25 (≈ 10.9 µg/mL)	0.39 (≈ 0.681 µg/mL)	12.5 (≈ 21.8 µg/mL)	6.25 (≈ 10.9 µg/mL)	CC[C@H](C)[C@H](NC(=O)[C@H](CCCNC(=N)N)NC(=O)[C@H]1CCCCNC(=N)NCCCC[C@H](NC(=O)[C@H](Cc2ccccc2)NC(=O)[C@H](Cc2c[nH]c3ccccc23)NC(=O)[C@@H]2CCCN2C(=O)[C@@H](NC(=O)[C@@H](N)Cc2ccccc2)C(C)C)C(=O)N[C@@H](CCCCN)C(=O)N[C@@H](Cc2ccccc2)C(=O)N[C@H](CC(C)C)C(=O)N1)C(=O)N[C@@H](CC(C)C)C(N)=O [Peptide 12, FVPWF{KKFlk}RIL]	19.6	103	88	47	11	10	100 ± 1	101 ± 2	90 ± 4	28 ± 4	2 ± 1	3 ± 1	63	viability at 2 h, 3.12 µM ([4]; Cell viability (%)): 106%; viability at 2 h, 6.25 µM ([4]; Cell viability (%)): 104%; viability at 2 h, 12.5 µM ([4]; Cell viability (%)): 56%; viability at 2 h, 25 µM ([4]; Cell viability (%)): 14%; viability at 2 h, 50 µM ([4]; Cell viability (%)): 4%; viability at 2 h, 100 µM ([4]; Cell viability (%)): 4%; viability at 24 h, 3.12 µM ([4]; Cell viability (%)): 93%; viability at 24 h, 6.25 µM ([4]; Cell viability (%)): 86%; viability at 24 h, 12.5 µM ([4]; Cell viability (%)): 66%; viability at 24 h, 25 µM ([4]; Cell viability (%)): 14%; viability at 24 h, 100 µM ([4]; Cell viability (%)): 0%; viability at 12.5 µM ([4]; cell viability): ~60%; viability at 2 h, 3.12 µM ([1]; Cell viability (%)): 101%; MIC [3]: 1.56 µM (≈ 2.72 µg/mL); MIC (A. baumannii ATCC 19606): 1.56 µM (≈ 2.72 µg/mL); remaining at 4 h, 200 μM (in vitro; isolated enzyme chymotrypsin, pH 7.8): ~40%; remaining at 4 h, 200 μM (in vitro; [5]): ~80%; remaining at 24 h, 200 μM (in vitro; [5]): ~35%
